The source of these data is US7167801B2, “Method of identifying potential inhibitors of human papillomavirus protein E2 using x-ray atomic coordinates” (Boehringer Ingelheim (Canada) Ltd., priority 2001, dated 2007).

The target in assay [1] is T1, SV40 T Antigen (TAg)-origin complex (Simian virus 40, UniProt P03070).
T1 construct: The Large T Antigen: Purchased from Chimerx, at 2.0 mg/mL; purchased Chimerx
As to the kind of experiment: SV40 T Antigen-DNA binding assay (counterscreen). It counts as biochemical. The settings on record: assay of Example 7, counterscreen. An excerpt:
SV40 T Antigen-DNA Binding Assay
This assay measures the formation of an SV40 T Antigen (TAg)-origin complex. The assay was developed by R. D. G. McKay (J. Mol. Biol. (1981) 145, 471–488). In principle, it is very similar to the E2-dependent E1-DNA binding assay (Example 6), with TAg replacing E1 and E2, and a radiolabeled SV40 ori probe replacing the HPV ori probe. The assay is used as a counterscreen for the assay of Example 6, since TAg shares functional homology to E1 and E2, but has very low sequence similarity.
The radiolabeled ori-containing DNA probe was made by PCR using pCH110 plasmid (Pharmacia) as a template. This template encodes the SV40 minimal origin of replication at nucleotides 7098-7023. Primers were “sv40-6958sens”=5′-GCCCCTAACTCCGCCCATCCCGC (SEQ ID NO. 7), and “sv40-206anti”=5′-ACCAGACCGCCACGGCTTACGGC (SEQ ID NO. 8). The PCR product was approximately 370 base pairs long and was radiolabeled using 50 μCi/100 μL PCR reaction of dCTP (α-^33P). […]
The protein-DNA complexes were immunocaptured using an α-TAg monoclonal antibody (PAb 101, subtype IgG2a, hybridoma obtained from ATCC and antibody purified in-house) bound to protein A-SPA beads. […] The plates were spun briefly and the precipitated radiolabeled DNA fragments were counted on a TopCount® counter.

The target in assay [2] is HPV-11 E2 (E2-dependent binding of E1 to the HPV-11 origin of replication) (Human papillomavirus 11, UniProt P04015). As to the kind of experiment: E2-dependent E1 origin-binding assay. It is filed as biochemical. The conditions noted are these: assay of Example 6; read-out: IC50 (inhibitory activity). An excerpt:
E2-Dependent E1 Origin-Binding Assay
This assay was modeled on a similar assay for SV40 T Antigen described by McKay (J. Mol. Biol., 1981,145:471). A 400 bp radiolabeled DNA probe, containing the HPV-11 origin of replication (Chiang et al., 1992, Proc. Natl. Acad. Sci. USA 89:5799) was produced by PCR, using plasmid pBluescript™ SK encoding the origin (nucleotides 7886-61 of the HPV-11 genome in unique BAMH1 site) as template and primers flanking the origin. Radiolabel was incorporated as [^33P]dCTP. Binding assay buffer consisted of: 20 mM Tris pH 7.6, 100 mM NaCl, 1 mM DTT, 1 mM EDTA.
Other reagents used were protein A-SPA beads (type II, Amersham) and K72 rabbit polyclonal antiserum, raised against a peptide corresponding to the C-terminal 14 amino acids of HPV-11 E1. Following the protocol from Amersham, one bottle of beads was mixed with 25 mL of binding assay buffer. For the assay, a saturating amount of K72 antiserum was added to the beads and the mixture was incubated for 1 h, washed with one volume of binding assay buffer, and then resuspended in the same volume of fresh binding assay buffer. […] After an additional hour of incubation at room temperature, the reactions were centrifuged briefly to pellet the beads and the extent of complex formation was determined by scintillation counting on a Packard TopCount™. […]

SMILES strings stand for the structures.

Chain of HPV-11 E2 (E2-dependent binding of E1 to the HPV-11 origin of replication) (P04015 whole entry): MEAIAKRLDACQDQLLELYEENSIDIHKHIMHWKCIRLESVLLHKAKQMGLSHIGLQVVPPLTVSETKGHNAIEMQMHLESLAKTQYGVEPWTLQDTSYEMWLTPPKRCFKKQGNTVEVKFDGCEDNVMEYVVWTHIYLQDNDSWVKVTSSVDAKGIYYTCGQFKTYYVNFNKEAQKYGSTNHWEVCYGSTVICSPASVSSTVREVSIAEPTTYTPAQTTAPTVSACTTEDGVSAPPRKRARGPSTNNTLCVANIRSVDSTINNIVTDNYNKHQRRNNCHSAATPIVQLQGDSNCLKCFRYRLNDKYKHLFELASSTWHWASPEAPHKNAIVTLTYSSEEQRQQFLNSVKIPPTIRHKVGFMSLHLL
T1 sequence (P03070 whole entry, one chain of several): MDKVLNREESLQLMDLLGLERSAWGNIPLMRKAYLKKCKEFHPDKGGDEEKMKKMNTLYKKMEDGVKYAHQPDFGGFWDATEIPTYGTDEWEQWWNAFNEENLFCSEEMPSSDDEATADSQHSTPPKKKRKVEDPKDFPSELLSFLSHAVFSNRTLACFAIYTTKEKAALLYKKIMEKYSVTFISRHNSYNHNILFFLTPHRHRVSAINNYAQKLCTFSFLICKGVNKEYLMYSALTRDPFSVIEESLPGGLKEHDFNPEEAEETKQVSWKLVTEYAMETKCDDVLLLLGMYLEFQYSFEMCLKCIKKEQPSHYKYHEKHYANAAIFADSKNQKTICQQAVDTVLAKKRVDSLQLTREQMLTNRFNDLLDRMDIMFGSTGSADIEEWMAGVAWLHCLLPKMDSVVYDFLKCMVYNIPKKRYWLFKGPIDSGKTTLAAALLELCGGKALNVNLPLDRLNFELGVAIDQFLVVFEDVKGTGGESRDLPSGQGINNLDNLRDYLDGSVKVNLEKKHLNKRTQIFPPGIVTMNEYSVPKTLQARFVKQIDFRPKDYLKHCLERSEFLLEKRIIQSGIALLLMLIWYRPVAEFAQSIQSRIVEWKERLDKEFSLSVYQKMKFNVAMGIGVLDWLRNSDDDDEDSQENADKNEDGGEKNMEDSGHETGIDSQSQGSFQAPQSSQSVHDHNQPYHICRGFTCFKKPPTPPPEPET

For orientation: IC50 means the concentration that gives 50% inhibition. Take `Cc1ccc2c(c1)C(=O)[C@]1(O[C@@H](c3ccc(Cl)c(Cl)c3)[C@@H](C(=O)Nc3ccc(-c4csnn4)cc3)[C@H]1C(=O)[O-])C2=O.[Na+]` (racemic) [Compound L]: in assay [1], the “Selectivity: activity in the SV40 large T antigen assay” value is listed as “lack of activity (or lower potency)”. Further, the IC50 in assay [2] stood at 180 nM.
